From patent publication US20250205259A1, “CLASS OF 7-((FIVE-MEMBERED HETEROCYCLIC)METHYL)-8-CARBOXYLIC ACID-BENZO CYCLIC BORATE DERIVATIVES AND USES THEREOF” (priority 2022, published 2025) come the findings set out here.

One experiment deals with AmpC (UniProt P24735). Briefly: Inhibitory activity on SBL, fluorescent substrate FC-5. Particulars: read-out: Inhibitory activity on SBL AmpC (IC50 class).
Another experiment addresses OXA-48 (Klebsiella pneumoniae, UniProt Q6XEC0). Described as above. Conditions: read-out: Inhibitory activity on SBL OXA-48 (IC50 class). The format is biochemical.
The target of another experiment is VIM-2 (Escherichia coli, UniProt Q5U7L7). Briefly: Inhibitory activity on MBL, fluorescent substrate FC-5. The format is biochemical. Particulars: read-out: Inhibitory activity on MBL VIM-2 (IC50 class).
A further experiment deals with NDM-5 (Klebsiella pneumoniae, UniProt C7C422, M154L/V88L). The description is as above. The format is biochemical.
Sequence of NDM-5 (C7C422 29-270 V88L/M154L): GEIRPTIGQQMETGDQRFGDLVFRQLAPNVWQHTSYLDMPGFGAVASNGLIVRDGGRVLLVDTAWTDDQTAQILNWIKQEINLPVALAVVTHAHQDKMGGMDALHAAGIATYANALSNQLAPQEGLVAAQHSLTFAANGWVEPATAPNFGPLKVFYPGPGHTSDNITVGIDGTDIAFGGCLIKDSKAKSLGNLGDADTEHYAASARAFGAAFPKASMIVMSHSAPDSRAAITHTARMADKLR
The next experiment deals with KPC-2 (Klebsiella pneumoniae, UniProt Q9F663). Briefly: Inhibitory activity on SBL, fluorescent substrate FC-5. It is filed as biochemical. Particulars: read-out: Inhibitory activity on SBL KPC-2 (IC50 class).
Sequence of KPC-2 (Q9F663 25-293 limits assumed): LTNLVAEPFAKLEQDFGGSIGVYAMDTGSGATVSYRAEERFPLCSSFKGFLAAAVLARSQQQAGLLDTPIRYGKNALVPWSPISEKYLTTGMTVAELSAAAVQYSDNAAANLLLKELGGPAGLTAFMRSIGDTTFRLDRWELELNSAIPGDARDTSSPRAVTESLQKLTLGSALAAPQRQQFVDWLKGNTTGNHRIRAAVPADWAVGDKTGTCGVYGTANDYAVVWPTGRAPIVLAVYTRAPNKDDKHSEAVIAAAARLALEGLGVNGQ
The target of a further experiment is IMP-1 (Serratia marcescens, UniProt P52699). The experiment is described as follows: Inhibitory activity on MBL, fluorescent substrate FC-5. The format is biochemical.
Sequence of IMP-1 (P52699 19-246 limits assumed): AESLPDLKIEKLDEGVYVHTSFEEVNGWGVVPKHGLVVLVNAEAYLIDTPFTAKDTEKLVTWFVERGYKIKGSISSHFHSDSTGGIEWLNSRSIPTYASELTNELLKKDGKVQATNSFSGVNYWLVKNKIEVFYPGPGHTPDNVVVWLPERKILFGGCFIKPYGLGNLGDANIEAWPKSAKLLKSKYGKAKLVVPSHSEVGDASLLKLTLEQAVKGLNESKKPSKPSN
For the next experiment, the target named is CTX-M-14 (Escherichia coli, UniProt Q9L5C7). The experiment is described as follows: Inhibitory activity on SBL, fluorescent substrate FC-5. The format is biochemical. Conditions: read-out: Inhibitory activity on SBL CTX-M-14 (IC50 class).
Sequence of CTX-M-14 (Q9L5C7 entry or part of it): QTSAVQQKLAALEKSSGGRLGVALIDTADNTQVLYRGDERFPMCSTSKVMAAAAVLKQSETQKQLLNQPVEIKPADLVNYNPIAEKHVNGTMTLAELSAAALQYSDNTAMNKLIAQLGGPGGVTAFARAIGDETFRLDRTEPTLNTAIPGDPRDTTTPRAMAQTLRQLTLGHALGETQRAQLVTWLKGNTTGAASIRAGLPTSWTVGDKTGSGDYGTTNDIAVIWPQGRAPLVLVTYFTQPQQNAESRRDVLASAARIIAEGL
The target in another experiment is NDM-1 (Klebsiella pneumoniae, UniProt C7C422). Briefly: Inhibitory activity on MBL, fluorescent substrate FC-5. The format is biochemical.
Sequence of NDM-1 (C7C422 29-270 limits assumed): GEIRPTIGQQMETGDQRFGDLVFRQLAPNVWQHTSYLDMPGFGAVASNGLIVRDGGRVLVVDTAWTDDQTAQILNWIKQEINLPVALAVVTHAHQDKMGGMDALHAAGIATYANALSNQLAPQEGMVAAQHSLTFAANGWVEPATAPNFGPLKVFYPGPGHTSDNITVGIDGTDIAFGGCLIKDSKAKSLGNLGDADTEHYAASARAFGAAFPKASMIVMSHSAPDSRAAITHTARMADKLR
A further experiment deals with VIM-1 (Pseudomonas aeruginosa, UniProt A0A0F7KYQ8). The description is as above. It is filed as biochemical.
A further experiment deals with TEM-1 (Escherichia coli, UniProt P62593). Briefly: Inhibitory activity on SBL, fluorescent substrate FC-5. It is filed as biochemical. Conditions: read-out: Inhibitory activity on SBL TEM-1 (IC50 class).
Sequence of TEM-1 (P62593 24-286 limits assumed): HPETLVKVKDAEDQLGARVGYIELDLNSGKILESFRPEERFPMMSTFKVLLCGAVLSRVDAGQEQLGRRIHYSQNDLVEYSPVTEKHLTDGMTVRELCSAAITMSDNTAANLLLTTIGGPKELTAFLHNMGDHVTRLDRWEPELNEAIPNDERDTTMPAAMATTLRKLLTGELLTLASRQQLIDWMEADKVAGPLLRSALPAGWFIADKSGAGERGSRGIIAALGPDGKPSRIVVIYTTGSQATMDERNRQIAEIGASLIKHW
The mark [1] stands for this setting: read-out: Inhibitory activity on MBL NDM-5 (IC50 class).
The mark [2] stands for this setting: read-out: inhibitory activity at a nanomolar-level on NDM-5.
Setting [3] is: read-out: Inhibitory activity on MBL IMP-1 (IC50 class).
[4] abbreviates: read-out: Inhibitory activity on MBL NDM-1 (IC50 class).
[5] abbreviates: read-out: inhibitory activity at a nanomolar-level on NDM-1.
Where [6] appears, read: VIM-1 and/or VIM-2, read-out: inhibitory activity at a nanomolar-level on VIM-1 and/or VIM-2.
Setting [7] is: read-out: Inhibitory activity on MBL VIM-1 (IC50 class).
The mark [8] stands for this setting: IMP-1 and/or IMP-4, read-out: inhibitory activity at a nanomolar-level on IMP-1 and/or IMP-4.

SMILES strings stand for the structures. Where two headings read alike, the source gives them in different places.

Sequence of OXA-48 (Q6XEC0 23-265 limits assumed): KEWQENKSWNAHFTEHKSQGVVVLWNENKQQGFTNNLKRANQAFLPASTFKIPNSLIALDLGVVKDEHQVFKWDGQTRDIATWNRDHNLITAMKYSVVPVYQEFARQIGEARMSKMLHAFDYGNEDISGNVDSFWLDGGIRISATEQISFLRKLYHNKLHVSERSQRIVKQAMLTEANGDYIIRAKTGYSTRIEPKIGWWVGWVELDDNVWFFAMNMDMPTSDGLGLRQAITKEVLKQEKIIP

In the case of `O=C(O)c1c(Cn2cc(-c3ccccc3)nn2)ccc2c1OB(O)CC2` [Compound 12], the IC50 was greater than 100000 nM at AmpC; less than 10 nM at OXA-48; 10 to 1000 nM on VIM-2; 10 to 1000 nM at NDM-5 (setting [1]); less than 1000 nM at NDM-5 (setting [2]); less than 10 nM on KPC-2. The IC50 on IMP-1 (setting [3]) was 1000 to 100000 nM; at CTX-M-14 it was 10 to 1000 nM; on NDM-1 (setting [4]) it was 10 to 1000 nM; on NDM-1 (setting [5]), less than 1000 nM; at VIM-1 (setting [6]), less than 1000 nM; on VIM-1 (setting [7]) it was 1000 to 100000 nM. The IC50 at TEM-1 is 10 to 1000 nM.

In the case of `O=C(O)c1c(Cn2ncc3ccccc32)ccc2c1OB(O)CC2` [Compound 22], the IC50 is 1000 to 100000 nM at AmpC; less than 10 nM on OXA-48; 10 to 1000 nM on VIM-2; 10 to 1000 nM at NDM-5 (setting [1]); less than 1000 nM at NDM-5 (setting [2]); less than 10 nM at KPC-2. The IC50 is less than 1000 nM on IMP-1 (setting [8]); 10 to 1000 nM at IMP-1 (setting [3]); 10 to 1000 nM on CTX-M-14; 10 to 1000 nM at NDM-1 (setting [4]); less than 1000 nM on NDM-1 (setting [5]); less than 1000 nM at VIM-1 (setting [6]). Also, the IC50 on VIM-1 (setting [7]) and at TEM-1 was 10 to 1000 nM throughout.

As to `N=C(N)N1CC(c2cn(Cc3ccc4c(c3C(=O)O)OB(O)CC4)nn2)C1` [Compound 49], the IC50 on AmpC was 1000 to 100000 nM; at OXA-48, 10 to 1000 nM; on VIM-2 it was 10 to 1000 nM; on NDM-5 (setting [1]), 10 to 1000 nM; on NDM-5 (setting [2]) it was less than 1000 nM; on KPC-2, less than 10 nM. Moreover, the IC50 is less than 1000 nM on IMP-1 (setting [8]); 10 to 1000 nM at IMP-1 (setting [3]); 10 to 1000 nM at CTX-M-14; 10 to 1000 nM at NDM-1 (setting [4]); less than 1000 nM on NDM-1 (setting [5]); 1000 to 100000 nM on VIM-1 (setting [7]). The IC50 on TEM-1 was in the range of 10 to 1000 nM.

Turning to `O=C(O)c1c(Cn2ccc3cncnc32)ccc2c1OB(O)CC2` [Compound 55], the IC50 is 1000 to 100000 nM on AmpC; 10 to 1000 nM at OXA-48; 10 to 1000 nM on VIM-2; 10 to 1000 nM on NDM-5 (setting [1]); less than 1000 nM on NDM-5 (setting [2]); less than 10 nM at KPC-2. In addition, the IC50 was less than 1000 nM at IMP-1 (setting [8]); 10 to 1000 nM at IMP-1 (setting [3]); less than 10 nM at CTX-M-14; 10 to 1000 nM at NDM-1 (setting [4]); less than 1000 nM at NDM-1 (setting [5]); 1000 to 100000 nM on VIM-1 (setting [7]). In addition, at TEM-1, the IC50 is less than 10 nM.

Regarding `N=C(N)N1Cc2cnn(Cc3ccc4c(c3C(=O)O)OB(O)CC4)c2C1` [Compound 67], the IC50 at AmpC is greater than 100000 nM; on OXA-48, less than 10 nM; on VIM-2, 10 to 1000 nM; on NDM-5 (setting [1]) it was 1000 to 100000 nM; at KPC-2, less than 10 nM; at IMP-1 (setting [3]), 1000 to 100000 nM. Also, the IC50 at CTX-M-14 lay in the range of 10 to 1000 nM; at NDM-1 (setting [4]), 10 to 1000 nM; at VIM-1 (setting [7]), 1000 to 100000 nM; at TEM-1, 10 to 1000 nM.
